Results on one compound are retold here after publication PMC6931124, “NPY1R-targeted peptide-mediated delivery of a dual PPARα/γ agonist to adipocytes enhances adipogenesis and prevents diabetes progression” (Molecular Metabolism, 2019).

For data set [1] the following is noted: volunteers, ref [111]; cited from earlier work. The text has this:
Thus, the observed anti-diabetic effects are assumed to result from adipocyte-specific PPARγ-mediate ...

A further data set has as its system 3T3-L1 preadipocytes. In words: AdipoRed adipogenesis assay, 3T3-L1. It counts as cell-based, murine. The settings on record: 24 h; tesa 10/25/100 μM, tesa-NPY 100 μM; AdipoRed fluorescence, DMSO = 100%; n = 3 in quadruplicate. How it is done:
3T3-L1 or SGBS cells were seeded into 96-well plates and grown to complete confluency (set as day 0). On day 2 of confluence, the 3T3-L1 cells were differentiated by DMEM High Glucose Medium supplemented with 10% (v/v) not-heat inactivated FCS, 0.5 mM IBMX, 167 nM human insulin, and 1 μM dexamethasone (differentiation medium). On day 4, the medium was replaced by insulin medium (DMEM High Glucose Medium, 10% not-heat inactivated FCS, and 167 nM human insulin). On day 6, the medium was changed to standard culture medium and changed every other day until full differentiation was achieved (on day 8). The SGBS cells were differentiated as previously described. […] On day 4, the medium was replaced by 3FC medium (DMEM High Glucose Medium and Hams F12 (1:1 (v/v))) without FCS and supplemented with 0.01 mg human apo-transferrin, 20 nM human insulin, triiodo-L-thyronine, and 100 nM hydrocortisone. The medium was changed every second day until full differentiation was achieved (day 10). […]
(A, B) Cells were differentiated and stimulated according to the protocol depicted for 3T3-L1 (A) and for SGBS (B). […] (E,F) Expression of adipocyte-enriched genes in 3T3-L1 (E) or SGBS (F) adipocytes analyzed by qPCR. […] Statistical significances refer to DMSO-treated cells and were determined by one-way analysis of variance (ANOVA) followed by Dunnett's multiple comparison test, *≤0.05, **p ≤ 0.01, ***p ≤ 0.001.

In the case of `CCO[C@@H](Cc1ccc(OCCc2ccc(OS(C)(=O)=O)cc2)cc1)C(=O)O` [tesa, tesaglitazar], the “absorption after oral dosing” value in data set [1] is “rapidly and completely absorbed after oral dosing”. Further, the “adipogenesis (triglyceride content), 3T3-L1” value with 3T3-L1 preadipocytes was “enhanced adipogenesis in both cell lines”.
